Tests used:
[1] = target: Cytochrome P450 2C9 (Homo sapiens, UniProt P11712); conditions: bti-tn-5b1-4; further: in other assays of this panel Not Active means under 50% inhibition at 10 µM
[2] = target: T1, Calcitonin receptor (Homo sapiens, UniProt P30988); type: cell membranes, Membrane; conditions: t47d; further: in other assays of this panel Not Active means under 50% inhibition at 10 µM
T1 sequence (P30988 whole entry): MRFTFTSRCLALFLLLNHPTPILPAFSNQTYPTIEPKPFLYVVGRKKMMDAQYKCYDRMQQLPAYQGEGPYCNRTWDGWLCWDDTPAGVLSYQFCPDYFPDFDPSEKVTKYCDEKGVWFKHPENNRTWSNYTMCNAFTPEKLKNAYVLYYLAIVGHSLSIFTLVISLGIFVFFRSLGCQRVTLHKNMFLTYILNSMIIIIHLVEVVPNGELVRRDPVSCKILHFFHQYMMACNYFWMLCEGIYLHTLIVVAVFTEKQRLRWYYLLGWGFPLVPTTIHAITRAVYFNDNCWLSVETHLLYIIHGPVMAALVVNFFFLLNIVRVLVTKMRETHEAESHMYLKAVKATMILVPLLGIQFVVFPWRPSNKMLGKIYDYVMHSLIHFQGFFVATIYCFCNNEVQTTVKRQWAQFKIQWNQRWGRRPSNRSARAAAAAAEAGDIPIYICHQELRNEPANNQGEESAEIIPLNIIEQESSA

[3] = target: T2, 5-hydroxytryptamine receptor 2C (Homo sapiens, UniProt P28335); assay: DRUGMATRIX: Serotonin (5-Hydroxytryptamine) 5-HT2C radioligand binding (ligand: [3H] Mesulergine); type: cell membranes, CHO-K1, Membrane; conditions: Not Active = under 50% inhibition at 10 µM
T2 sequence (P28335 whole entry): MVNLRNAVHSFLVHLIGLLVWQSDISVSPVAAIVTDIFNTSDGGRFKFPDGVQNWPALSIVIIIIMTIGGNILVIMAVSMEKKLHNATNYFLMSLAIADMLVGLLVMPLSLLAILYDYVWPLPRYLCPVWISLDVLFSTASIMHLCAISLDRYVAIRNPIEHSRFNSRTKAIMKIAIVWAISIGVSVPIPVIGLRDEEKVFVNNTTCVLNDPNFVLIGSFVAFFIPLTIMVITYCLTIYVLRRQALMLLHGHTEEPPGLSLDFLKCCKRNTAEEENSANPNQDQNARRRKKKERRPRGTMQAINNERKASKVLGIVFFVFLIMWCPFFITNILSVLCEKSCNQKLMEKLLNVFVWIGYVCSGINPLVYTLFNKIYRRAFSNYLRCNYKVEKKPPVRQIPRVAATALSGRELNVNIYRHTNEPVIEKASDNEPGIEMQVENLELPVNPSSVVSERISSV

[4] = target: T3, Adenosine receptor A3 (Homo sapiens, UniProt P0DMS8); type: cell membranes, CHO-K1, Membrane; conditions: cho-k1;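 further: radioligand binding assay with AB-MECA serving as the labeled ligand; in other assays of this panel Not Active means under 50% inhibition at 10 µM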
T3 sequence (P0DMS8 whole entry): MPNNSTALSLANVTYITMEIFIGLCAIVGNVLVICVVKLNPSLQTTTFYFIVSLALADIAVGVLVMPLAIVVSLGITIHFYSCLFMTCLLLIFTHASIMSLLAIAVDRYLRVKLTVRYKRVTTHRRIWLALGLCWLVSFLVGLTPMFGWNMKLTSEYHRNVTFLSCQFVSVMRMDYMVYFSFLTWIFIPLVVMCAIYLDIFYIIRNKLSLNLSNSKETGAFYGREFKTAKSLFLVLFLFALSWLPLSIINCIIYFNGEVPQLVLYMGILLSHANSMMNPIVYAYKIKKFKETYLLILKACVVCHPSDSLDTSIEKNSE

[5] = DRUGMATRIX: Tumor Necrosis Factor (TNF), Non-Selective radioligand binding (ligand: [125I] TNF-alpha); type: cell membranes, Membrane; conditions: u-937; Not Active = under 50% inhibition at 10 µM
[6] = target: T4, Alpha-1B adrenergic receptor (Rattus norvegicus, UniProt P15823); assay: DRUGMATRIX: Alpha-1B adrenergic receptor radioligand binding (ligand: prazosin); type: cell membranes, Wistar, Liver, Membrane; conditions: Not Active = under 50% inhibition at 10 µM
T4 sequence (P15823 whole entry): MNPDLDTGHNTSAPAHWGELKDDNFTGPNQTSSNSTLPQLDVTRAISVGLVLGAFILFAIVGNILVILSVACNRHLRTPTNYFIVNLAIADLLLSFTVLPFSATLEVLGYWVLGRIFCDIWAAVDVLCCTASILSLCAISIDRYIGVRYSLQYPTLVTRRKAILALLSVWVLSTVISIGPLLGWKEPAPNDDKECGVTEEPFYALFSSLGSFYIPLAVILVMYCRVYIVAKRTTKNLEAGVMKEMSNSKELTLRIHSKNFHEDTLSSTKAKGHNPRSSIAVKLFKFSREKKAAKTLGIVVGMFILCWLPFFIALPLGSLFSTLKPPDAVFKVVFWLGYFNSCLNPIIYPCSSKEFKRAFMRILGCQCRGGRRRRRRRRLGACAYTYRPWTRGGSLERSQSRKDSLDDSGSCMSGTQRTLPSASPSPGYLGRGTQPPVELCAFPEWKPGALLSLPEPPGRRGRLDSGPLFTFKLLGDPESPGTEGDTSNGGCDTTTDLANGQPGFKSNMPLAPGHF

[7] = DRUGMATRIX: Calcium Channel Type L, Phenylalkylamine radioligand binding (ligand: [3H] (-)-Desmethoxyverapamil (D-888)); type: cell membranes, Rattus norvegicus, Wistar, Brain, Membrane; conditions: Not Active = under 50% inhibition at 10 µM
[8] = target: Matrix metalloproteinase-9 (Homo sapiens, UniProt P14780); type: cell-based;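 further: inhibition of isolated MMP-9 enzyme activity toward a synthetic peptide substrate, from the DrugMatrix protease screening panel; in other assays of this panel Not Active means under 50% inhibition at 10 µM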
[9] = DRUGMATRIX: GABAA, Muscimol, Central radioligand binding (ligand: [3H] Muscimol); type: cell membranes, Rattus norvegicus, Wistar, Brain, Membrane; conditions: Not Active = under 50% inhibition at 10 µM
[10] = DRUGMATRIX: Phorbol Ester radioligand binding (ligand: [3H] PDBu); type: cell membranes, Mus musculus, ICR, Brain, Membrane; conditions: Not Active = under 50% inhibition at 10 µM
[11] = DRUGMATRIX: Calcium Channel Type L, Dihydropyridine radioligand binding (ligand: [3H] Nitrendipine); type: cell membranes, Rattus norvegicus, Wistar, Cerebral cortex, Membrane; conditions: Not Active = under 50% inhibition at 10 µM
[12] = target: Sigma non-opioid intracellular receptor 1 (Homo sapiens, UniProt Q99720); assay: DRUGMATRIX: Sigma1 radioligand binding (ligand: [3H] Haloperidol); type: cell membranes, Jurkat, Membrane; conditions: jurkat; Not Active = under 50% inhibition at 10 µM
[13] = DRUGMATRIX: ATPase, Na+/K+ enzyme inhibition (substrate: ATP); type: tissue-based, Sus scrofa, Heart; conditions: Not Active = under 50% inhibition at 10 µM
[14] = target: Cytochrome P450 2D6 (Homo sapiens, UniProt P10635); conditions: bti-tn-5b1-4; further: in other assays of this panel Not Active means under 50% inhibition at 10 µM
Sequence of Cytochrome P450 2D6 (P10635 whole entry): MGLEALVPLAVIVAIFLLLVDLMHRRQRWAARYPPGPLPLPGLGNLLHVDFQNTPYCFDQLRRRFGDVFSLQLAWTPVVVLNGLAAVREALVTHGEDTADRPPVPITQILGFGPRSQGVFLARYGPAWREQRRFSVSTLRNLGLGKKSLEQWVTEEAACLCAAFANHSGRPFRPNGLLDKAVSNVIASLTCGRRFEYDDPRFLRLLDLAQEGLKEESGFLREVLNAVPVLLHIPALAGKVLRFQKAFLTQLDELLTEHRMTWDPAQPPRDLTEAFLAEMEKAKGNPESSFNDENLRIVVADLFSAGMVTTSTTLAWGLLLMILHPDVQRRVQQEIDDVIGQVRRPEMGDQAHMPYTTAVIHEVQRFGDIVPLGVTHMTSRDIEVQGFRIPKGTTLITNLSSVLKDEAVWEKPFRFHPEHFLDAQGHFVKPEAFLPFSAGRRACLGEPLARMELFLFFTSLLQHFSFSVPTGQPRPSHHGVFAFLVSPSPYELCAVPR

Sequence of Sigma non-opioid intracellular receptor 1 (Q99720 whole entry): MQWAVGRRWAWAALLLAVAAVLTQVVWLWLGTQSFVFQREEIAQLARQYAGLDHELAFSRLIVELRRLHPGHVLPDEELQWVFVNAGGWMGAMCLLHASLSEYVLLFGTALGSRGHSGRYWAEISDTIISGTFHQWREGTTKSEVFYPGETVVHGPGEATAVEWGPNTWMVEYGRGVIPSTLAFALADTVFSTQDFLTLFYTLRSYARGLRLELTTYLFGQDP
Sequence of Matrix metalloproteinase-9 (P14780 whole entry): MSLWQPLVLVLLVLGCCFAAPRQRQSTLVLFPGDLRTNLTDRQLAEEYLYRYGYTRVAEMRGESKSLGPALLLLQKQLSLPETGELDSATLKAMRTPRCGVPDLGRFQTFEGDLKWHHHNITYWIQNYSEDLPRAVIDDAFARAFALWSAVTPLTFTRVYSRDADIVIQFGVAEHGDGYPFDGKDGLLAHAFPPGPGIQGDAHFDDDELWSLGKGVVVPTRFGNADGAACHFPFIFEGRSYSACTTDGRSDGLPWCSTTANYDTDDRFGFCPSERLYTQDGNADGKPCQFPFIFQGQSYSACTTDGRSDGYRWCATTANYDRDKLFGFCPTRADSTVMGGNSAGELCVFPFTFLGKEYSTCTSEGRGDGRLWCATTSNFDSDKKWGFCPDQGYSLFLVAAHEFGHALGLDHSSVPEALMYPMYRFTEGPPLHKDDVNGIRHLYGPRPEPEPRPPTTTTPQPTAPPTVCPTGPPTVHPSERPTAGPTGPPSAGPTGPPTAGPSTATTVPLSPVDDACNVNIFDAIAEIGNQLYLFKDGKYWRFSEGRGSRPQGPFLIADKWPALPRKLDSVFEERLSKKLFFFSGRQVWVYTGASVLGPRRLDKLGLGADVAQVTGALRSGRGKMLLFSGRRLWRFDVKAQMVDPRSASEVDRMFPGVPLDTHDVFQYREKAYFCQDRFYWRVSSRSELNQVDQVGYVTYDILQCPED
Sequence of Cytochrome P450 2C9 (P11712 whole entry): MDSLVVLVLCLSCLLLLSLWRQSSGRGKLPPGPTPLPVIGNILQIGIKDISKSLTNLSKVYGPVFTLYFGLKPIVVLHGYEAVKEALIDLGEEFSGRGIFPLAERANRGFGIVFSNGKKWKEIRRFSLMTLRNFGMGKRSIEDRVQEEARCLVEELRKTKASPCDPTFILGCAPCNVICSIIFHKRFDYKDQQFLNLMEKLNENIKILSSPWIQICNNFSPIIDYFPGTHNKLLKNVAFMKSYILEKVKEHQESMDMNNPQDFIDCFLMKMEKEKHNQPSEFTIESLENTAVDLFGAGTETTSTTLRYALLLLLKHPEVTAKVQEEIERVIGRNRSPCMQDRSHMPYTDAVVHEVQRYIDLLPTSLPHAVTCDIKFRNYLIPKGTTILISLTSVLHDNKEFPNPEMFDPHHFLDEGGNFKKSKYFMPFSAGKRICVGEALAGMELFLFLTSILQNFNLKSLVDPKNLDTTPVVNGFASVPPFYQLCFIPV

SMILES | IC50 [1] | Ki [1] | IC50 [2] | IC50 [4] | IC50 [5] | Ki [5] | IC50 [7] | Ki [7] | IC50 [8] | IC50 [9] | Ki [9] | IC50 [10] | Ki [10] | IC50 [11] | Ki [11] | IC50 [12] | IC50 [13] | Ki [13] | IC50 [14] | Ki [14] | other results
C=C1CC[C@H](O)C/C1=C/C=C1\CCC[C@]2(C)[C@@H]([C@H](C)/C=C/[C@H](C)C(C)C)CC[C@@H]12 [ERGOCALCIFEROL] | Not Active | Not Active | Not Active | Not Active | Not Active | Not Active | Not Active | Not Active | Not Active | Not Active | Not Active | Not Active | Not Active | Not Active | Not Active | Not Active | Not Active | Not Active | Not Active | Not Active | IC50 ([3]; cho-k1): Not Active; IC50 [6]: Not Active
CN1C[C@H](C(=O)N[C@]2(C)O[C@@]3(O)[C@@H]4CCCN4C(=O)[C@H](Cc4ccccc4)N3C2=O)C=C2c3cccc4[nH]cc(c34)C[C@H]21 [ERGOTAMINE] | Not Active | Not Active | Not Active | Not Active | Not Active | Not Active | Not Active | Not Active | Not Active | Not Active | Not Active | Not Active | Not Active | Not Active | Not Active | Not Active | Not Active | Not Active | Not Active | Not Active | IC50 ([3]; read-out: IC50): 56 nM; Ki ([3]; read-out: Ki): 29 nM; IC50 ([6]; read-out: IC50): 8.21 nM; Ki ([6]; read-out: Ki): 4.55 nM
CCc1cccc2c3c([nH]c12)C(CC)(CC(=O)O)OCC3 (stereo unspecified) [ETODOLAC] | Not Active | Not Active | Not Active | Not Active | Not Active | Not Active | Not Active | Not Active | Not Active | Not Active | Not Active | Not Active | Not Active | Not Active | Not Active | Not Active | Not Active | Not Active | Not Active | Not Active | IC50 ([3]; cho-k1): Not Active; IC50 [6]: Not Active
Cc1c(-c2ccccc2)oc2c(C(=O)OCCN3CCCCC3)cccc2c1=O [FLAVOXATE] | Not Active | Not Active | Not Active | Not Active | Not Active | Not Active | Not Active | Not Active | Not Active | Not Active | Not Active | Not Active | Not Active | Not Active | Not Active | Not Active | Not Active | Not Active | Not Active | Not Active | IC50 ([3]; cho-k1): Not Active; IC50 [6]: Not Active
Nc1nc(=O)[nH]cc1F [FLUCYTOSINE] | Not Active | Not Active | Not Active | Not Active | Not Active | Not Active | Not Active | Not Active | Not Active | Not Active | Not Active | Not Active | Not Active | Not Active | Not Active | Not Active | Not Active | Not Active | Not Active | Not Active | IC50 ([3]; cho-k1): Not Active; IC50 [6]: Not Active
O=C1OC2(c3ccc(O)cc3Oc3cc(O)ccc32)c2ccccc21 [FLUORESCEIN] | Not Active | Not Active | Not Active | Not Active | Not Active | Not Active | Not Active | Not Active | Not Active | Not Active | Not Active | Not Active | Not Active | Not Active | Not Active | Not Active | Not Active | Not Active | Not Active | Not Active | IC50 ([3]; cho-k1): Not Active; IC50 [6]: Not Active
CC(=O)[C@@]1(O)CC[C@H]2[C@@H]3C[C@H](C)C4=CC(=O)C=C[C@]4(C)[C@@]3(F)[C@@H](O)C[C@@]21C [FLUOROMETHOLONE] | Not Active | Not Active | Not Active | Not Active | Not Active | Not Active | Not Active | Not Active | Not Active | Not Active | Not Active | Not Active | Not Active | Not Active | Not Active | Not Active | Not Active | Not Active | Not Active | Not Active | IC50 ([3]; cho-k1): Not Active; IC50 [6]: Not Active
